Results published in patent US20250381180A1, “METHODS OF TREATING OR PREVENTING OVERACTIVE BLADDER SYNDROME” (Purdue Pharma L.P., priority 2022, published 2025).
“Also recorded” adds a separate entry of the source.

Experiments:
conscious SCI rats = experiment: Cystometric parameters in conscious spinal cord injury (SCI) rats; type: in vivo, rat
Description: Test substance effects were compared to those of the reference substance, the β3-adrenoceptor agonist mirabegron, marketed for overactive bladder.
• At W-5, spinal cord injury was performed at T8 level as described below. • Over W-5, rats were treated daily with gentamicin. • Over W-5 and W-4, bladder was emptied manually once a day. • From W-5 to W0, animals were weighed once per week. • At D-2 (W0), implantation of catheters was performed under isoflurane anaesthesia as described below. • At D0 (W0), cystometry was performed
Rats were anesthetized with isoflurane (3%). Body temperature was constantly maintained at 37° C. throughout the surgery by placing animals on a thermo-regulated hot plate. A laminectomy was performed and the spinal cord was sectioned with microscissors at T8 level. Care was taken to assure that the section was complete by verifying that a slight retraction of the two segments occurred. Then the muscle was sutured and the skin fixed with staples. The scar was cleaned by Vetedine. For the Sham group, the same surgery was performed without section of the spinal cord.
The urinary bladder was squeezed once a day for 14 days with a gentle massage of the abdomen until restoration of the micturition reflex. In addition, they were administered intramuscularly daily for one week with gentamicin (2 mg/mL, 0.2 ml/rat). Animals were euthanized if they reached humane endpoints: weight loss of greater than 20% of their body weight and/or abnormal behavioral changes indicating presence of pain and distress (prostration, self-mutilation, aggressiveness).
Rats were anesthetized with isoflurane (3%). Body temperature was constantly maintained at 37° C. throughout the surgery by placing animals on a thermo-regulated hot plate. A polyethylene catheter (0.58 and 0.96 mm of inner and outer diameters, respectively) was implanted in the bladder through the dome for intravesical pressure recording. Another catheter (0.58 and 0.96 mm of inner and outer diameters, respectively) was implanted in the stomach for intra-gastric administration. Catheters were exteriorized at the scapular level. After surgery, each rat was housed individually up to the end of the protocol with free access to food and water.
Animals were held under partial restraint in a restraining device. Saline was infused into the bladder at a constant flow rate of 2 or 6 mL/h for sham or SCI rats, respectively. After at least 45 min (3 complete micturition cycles corresponding to basal values), test substances were administered by intra-gastric route. Then, intravesical pressure was recorded for 90 min.
The following cystometric parameters were analyzed (see FIG. 10): • Amplitude of micturition (AM, mmHg). • Threshold pressure (ThP, mmHg). • Intercontraction interval (ICI, sec): time between basal pressure and ThP. ICI was not presented due to different infusion rate in sham and SCI rats. ICI was only analyzed to calculate the bladder capacity. • Bladder capacity (BC, mL) BC=ICI×infusion rate. • Amplitude of non voiding contractions (NVC, mmHg) • Frequency of NVC (number per min).
For each cystometric parameter and for each time period, the comparisons were performed as described below: • Basal values of each cystometric parameter of Sham/Vehicle and SCI/Vehicle groups were compared using unpaired student t test • Basal values of each cystometric parameter of all SCI groups were compared using one-way ANOVA or Kruskal-Wallis test • The 3 interval periods of 30 min post treatment of each cystometric parameter within the same group were compared to corresponding basal values using one-way ANOVA with repeated measures or Friedman test followed by Dunnett's or Dunn's post-test, respectively. • The 3 interval periods of 30 min post treatment of each cystometric parameter were compared between all SCI groups using one-way ANOVA or Kruskal Wallis test followed by Holm-Sidak's or Dunn's post-test versus Vehicle, respectively.

conscious BOO rats = experiment: Cystometric parameters in conscious bladder outlet obstruction (BOO) rats; type: in vivo, rat
Description: Test substance effects were compared to those of the reference substance, mirabegron, marketed for overactive bladder.
• At W-6, a partial ligature of the urethra was performed. • At W-6, during 3 consecutive days, rats were treated daily with gentamycin and Ketofen® The bladder was emptied manually once a day. • From W-6 to W-1 animals were monitored and weighed once per week. • At W0 (D-2), catheters were implanted under isoflurane anesthesia. • At D0, cystometry was performed.
Appropriate amount of Cpd (IA) was weighed and dissolved in vehicle to obtain the dosing solution with the target concentration of 3 mg/mL (as free base). […]
[…] Mirabegron (from Kemprotec) was prepared fresh on the day of administration at a final concentration of 2 mg/mL (free base form). Appropriate mass of mirabegron was weighed and dissolved in vehicle (0.5% MC) at room temperature.

[1] = i.g., Cpd (IA) 30 mg/kg, mirabegron 10 mg/kg
[2] = 3 mg/kg i.v., 0-90 min entire period
[3] = 3 mg/kg i.v., 60-90 min interval period
[4] = i.g., 60-90 min interval period

O=C(O)c1nc2ccccc2n([C@H]2C[C@H]3CCC[C@@H](C2)N3C2CC3CCCC(C3)C2)c1=O (stereo partly shown) [Cpd (IA)]
% of variation from basal values of BC (conscious SCI rats; Cpd (IA) 30 mg/kg i.g., 0-30 min interval, mean±s.e.m., vehicle −0.4±15): −35±7%
AM (amplitude of micturition), effect versus basal (conscious SCI rats; [1]): did not significantly modify
AM (mmHg and % variation), effect versus vehicle (conscious SCI rats; [1]): not significantly modified
BC expressed in % variation from basal, effect versus vehicle (conscious SCI rats; [1]): significantly decreased BC for the 0-30 min post-administration interval period; also recorded: significantly reduced BC, compared to vehicle, for the 0-30 min post-administration interval period
BC expressed in mL, effect versus vehicle (conscious SCI rats; [1]): no significant difference
NVC amplitude (mmHg or % variation), effect versus vehicle (conscious SCI rats; [1]): not significantly modified
NVC amplitude, effect versus basal (conscious SCI rats; [1]): significantly decreased NVC amplitude for the 30-60 and 60-90 min post-administration interval periods
NVC frequency (NVC/min and % variation), effect versus vehicle (conscious SCI rats; [1]): not significantly modified
NVC frequency, effect versus basal (conscious SCI rats; [1]): significantly decreased NVC frequency for the 0-30 and 60-90 min interval periods
ThP (mmHg and % variation), effect versus vehicle (conscious SCI rats; [1]): not significantly modified
ThP (threshold pressure), effect versus basal (conscious SCI rats; [1]): no significant effect
BC (bladder capacity), effect versus basal (conscious SCI rats; i.g., Cpd (IA) 30 mg/kg, mirabegron 10 mg/kg, 30-min interval periods to 90 min): significantly decreased BC for the 0-30 and 30-60 min post-administration interval periods
NVC frequency, effect versus basal (conscious SCI rats; i.g., Cpd (IA) 30 mg/kg, mirabegron 10 mg/kg, listed as compound of formula (IA)): significantly decreased NVC frequency compared to basal value for the 0-30 and 60-90 min post-administration interval periods
AM (mmHg or % variation), effect versus vehicle (conscious BOO rats; [2]): not significantly modified
AM, effect versus basal (conscious BOO rats; [2]): did not significantly modify
BC expressed in % variation from basal, effect versus vehicle (conscious BOO rats; [2]): significantly decreased
BC expressed in mL, effect versus vehicle (conscious BOO rats; [2]): no significant difference
NVC amplitude (mmHg and % variation), effect versus vehicle (conscious BOO rats; [2]): not significantly modified
NVC amplitude, effect versus basal (conscious BOO rats; [2]): did not modify
NVC frequency (NVC/min or % variation), effect versus vehicle (conscious BOO rats; [2]): not significantly modified
NVC frequency, effect versus basal (conscious BOO rats; [2]): did not affect
ThP expressed in mmHg, effect versus vehicle (conscious BOO rats; [2]): not significantly modified
ThP, effect versus basal (conscious BOO rats; [2]): no significant effect
ThP expressed in % variation from basal, effect versus vehicle (conscious BOO rats; 3 mg/kg i.v., 0-90 min entire period, p=0.0504): decreased after Cpd (IA) treatment, the p value was close to the significance
AM (mmHg or % variation), effect versus vehicle (conscious BOO rats; [3]): no effect
AM, effect versus basal (conscious BOO rats; [3]): did not significantly modify
BC (mL and % variation), effect versus vehicle (conscious BOO rats; [3]): no significant difference
NVC amplitude (mmHg and % variation), effect versus vehicle (conscious BOO rats; [3]): not significantly modified
NVC amplitude, effect versus basal (conscious BOO rats; [3]): without any effect
NVC frequency (NVC/min or % variation), effect versus vehicle (conscious BOO rats; [3]): unaffected
NVC frequency, effect versus basal (conscious BOO rats; [3]): no significant effect
ThP expressed in % variation from basal, effect versus vehicle (conscious BOO rats; [3]): significantly decreased
ThP expressed in mmHg, effect versus vehicle (conscious BOO rats; [3]): not significantly modified
ThP, effect versus basal (conscious BOO rats; [3]): significantly decreased
BC, effect versus basal (conscious BOO rats; Cpd (IA) 3 mg/kg i.v., 0-90 min entire period): did not significantly modify
BC, effect versus basal (conscious BOO rats; Cpd (IA) 3 mg/kg i.v., 60-90 min interval period): neither vehicle nor Cpd (IA) had a significant effect
% of variation from basal values of BC (conscious BOO rats; Cpd (IA) 30 mg/kg i.g., 0-90 min entire period, vehicle 11±6): −13±6%
AM (mmHg or % variation), effect versus vehicle (conscious BOO rats; i.g., 0-90 min entire period): not significantly modified
AM, effect versus basal (conscious BOO rats; i.g., 0-90 min entire period): did not significantly modify
BC expressed in % variation from basal, effect versus vehicle (conscious BOO rats; i.g., 0-90 min entire period): significantly decreased
BC expressed in mL, effect versus vehicle (conscious BOO rats; i.g., 0-90 min entire period): no significant difference
NVC amplitude expressed in % variation from basal, effect versus vehicle (conscious BOO rats; i.g., 0-90 min entire period): remained unaffected
NVC amplitude expressed in mmHg, effect versus vehicle (conscious BOO rats; i.g., 0-90 min entire period): not significantly modified
NVC amplitude, effect versus basal (conscious BOO rats; i.g., 0-90 min entire period): did not modify
NVC frequency (NVC/min or % variation), effect versus vehicle (conscious BOO rats; i.g., 0-90 min entire period): not significantly modified
NVC frequency, effect versus basal (conscious BOO rats; i.g., 0-90 min entire period): did not affect
ThP expressed in % variation from basal, effect versus vehicle (conscious BOO rats; i.g., 0-90 min entire period): significantly decreased
ThP expressed in mmHg, effect versus vehicle (conscious BOO rats; i.g., 0-90 min entire period): not significantly modified
ThP, effect versus basal (conscious BOO rats; i.g., 0-90 min entire period): did not modify
AM (mmHg or % variation), effect versus vehicle (conscious BOO rats; [4]): no effect
AM, effect versus basal (conscious BOO rats; [4]): did not significantly modify
BC expressed in % variation from basal, effect versus vehicle (conscious BOO rats; [4]): significantly decreased
BC expressed in mL, effect versus vehicle (conscious BOO rats; [4]): no significant difference
NVC amplitude expressed in % variation from basal, effect versus vehicle (conscious BOO rats; [4]): not significantly modified
NVC amplitude expressed in mmHg, effect versus vehicle (conscious BOO rats; [4]): not significantly modified
NVC amplitude, effect versus basal (conscious BOO rats; [4]): without any effect
NVC frequency (NVC/min or % variation), effect versus vehicle (conscious BOO rats; [4]): unaffected
NVC frequency, effect versus basal (conscious BOO rats; [4]): did not affect
ThP expressed in % variation from basal, effect versus vehicle (conscious BOO rats; [4]): significantly decreased
ThP expressed in mmHg, effect versus vehicle (conscious BOO rats; [4]): not significantly modified
ThP, effect versus basal (conscious BOO rats; [4]): significantly decreased
BC, effect versus basal (conscious BOO rats; i.g., Cpd (IA) 30 mg/kg, mirabegron 10 mg/kg, 0-90 min entire period): significantly decreased
BC, effect versus basal (conscious BOO rats; i.g., Cpd (IA) 30 mg/kg, mirabegron 10 mg/kg, 60-90 min interval period): significantly decreased
all other cystometric parameters (than BC and ThP), effect versus vehicle (conscious BOO rats; i.v., conclusions): no effect
